Tests used:
[1] = system: NADH oxidase, bovine heart mitochondrial complex (I, III, IV); assay: NADH oxidase inhibition assay, submitochondrial particles; format: biochemical; conditions: for NADH oxidase activity (%): percentage of control; for IC50: beef heart SMP
Procedure: Beef heart mitochondria were obtained by a large-scale procedure. Inverted submitochondrial particles (SMP) were prepared by the method of Matsuno-Yagi and Hatefi (J. Biol. Chem. 260 (1985), p. 14424), and stored in a buffer containing 0.25 M sucrose and 10 mM Tris-HCl (pH 7.4) at −80° C. Inhibitory effects of compounds on bovine heart mitochondrial complex (I, III, IV) were evaluated. Maximal dimethyl sulfoxide concentration never exceeded 2% and had no influence on the control enzymatic activity. Beef heart SMP were diluted to 0.5 mg/mL. The enzymatic activities were assayed at 30° C. and monitored spectrophotometrically with a Beckman Coulter DU-530 (340 nm, c=6.22 mM^−1 cm^−1). NADH oxidase activity was determined in a reaction medium (2.5 mL) containing 50 mM Hepes, pH 7.5, containing 5 mM MgCl2. The final mitochondrial protein concentration was 30 μg. After the pre-equilibration of SMP with inhibitor for 5 min, the initial rates were calculated from the linear portion of the traces.
The activity is expressed as percentage of control.

[2] = system: CoQ10 deficient lymphocyte cell line; assay: Total intracellular ATP concentration assay (luciferin-luciferase); format: cell-based, human; conditions: 48 h, glucose free media with galactose
Description: The reductions of mitochondrial respiratory chain activity in CoQ10 deficient patients have been reported (Quinzii G M, Lopez L C, Von-Moltke J, Naini A, Krishna S, Schuelke M, Salviati L, Navas P, DiMauro S, and Hirano, M. Respiratory chain dysfunction and oxidative stress correlate with severity of primary CoQ10 deficiency. FASEB J. 2008; 22:1874-1885). The use of CoQ10 analogues to normalize and restore the respiratory chain activities could provide valuable therapeutic approach. We have evaluated the efficiency of oxidative phosphorylation in CoQ10 deficient lymphocyte (GM17932) in presence of tested CoQ10 analogues by measuring total cellular ATP content using (ViaLight® Plus ATP monitoring reagent kit, Lonza).
CoQ10 deficient lymphocyte and normal lymphocyte cell lines were obtained from Coriell Cell Repositories (Camden, N.J.; catalog number GM-17932, GM-158151, respectively). CoQ10 deficient lymphocytes were cultured under glucose-free media supplemented with galactose for two weeks to force energy production predominantly through oxidative phosphorylation rather than glycolysis (Quinzii et al.; Robinson B H, Petrova-Benedict R, Buncic J R, Wallace D C. Nonviability of cells with oxidative defects in galactose medium: A screening test for affected patient fibroblast. Biochem. Med. Metab. Biol. 1992; 48:122-126). Lymphocytes were cultured in RPMI 1640 medium glucose-free (Gibco, Grand Island, N.Y.) supplemented with 25 mM galactose, 2 mM glutamine and 1% penicillin-streptomycin (Cellgro), and 10%, dialyzed fetal bovine serum FBS 0.5 μg/mL) (GEMINI, Bio-Product), Briefly, lymphocytes (2×10^5 cell/mL), were plated (1 mL in 12-well plates) and treated with the test compounds at final concentrations of 5, 10 μM, and 25 μM and incubated at 37° C. for 48 h in a humidified atmosphere containing 5% CO2 in air. The test compounds were prepared by first making 20 mM stock solutions in DMSO. Cells were transferred (100 μL) to 96-well microtiter black-walled cell culture plates (Costar, Corning, N.Y.). The total intracellular ATP level was measured in a luminator (Clarity™ luminescence microplate reader) with the ATP Bioluminescence Assay Kit (ViaLight® Plus ATP monitoring reagent kit, Lonza) following the manufacturer's instructions. The standard curve of ATP was obtained by serial dilution of 1 mM ATP solution. After calibration against the ATP standard, the ATP content of the cell extract was determined and normalized for protein content in the cell.
To enforce the respiratory chain-dependent ATP synthesis, cells were grown for 48 hours in glucose free media supplemented with 25 mM galactose and 10% dialyzed fetal bovine serum (glucose concentration less than 0.5 μg/mL). FIG. 20 illustrates total intracellular ATP levels in CoQ10 deficient and normal lymphocytes measured using the luciferin-luciferase reaction. The levels of ATP shown in Table 1 are relative to the 100% value obtained for the CoQ10 deficient cells in FIG. 20.

CEM cells = assay: Reactive oxygen species (ROS) assay, DCFH-DA, DEM-treated cells; format: cell-based, human; conditions: compound 1 μM, 5 mM DEM
Description: Cellular ROS production can be monitored using 2′,7′-dichlorodihydrofluorescein diacetate (DCFH-DA) (LeBel et al. (1992) Chem. Res. Toxicol. 5, 227-231) (Molecular Probes, Eugene, Oreg., USA), a membrane permeable and oxidant-sensitive fluorescent dye. DCFH-DA is a non-fluorescent derivative of fluorescein that emits fluorescence after being oxidized by hydrogen peroxide and other ROS. The emitted fluorescence is directly proportional to the concentration of hydrogen peroxide. DCFH-DA is nonionic and nonpolar and is easily taken up by cells. Once inside the cell, DCFH-DA is hydrolyzed by cellular esterases to non-fluorescent DCFH which traps the dye in the cell. In the presence of ROS including hydrogen peroxide, DCFH is oxidized to the highly fluorescent compound dichlorofluorescein (DCF). The intracellular DCF fluorescence is used as an index of cellular ROS production.
Cellular oxidative stress was induced by pharmacological depletion of glutathione (GSH) using the chemical diethylmaleate (DEM). ROS production was assessed by monitoring DCF fluorescence. Leukemic CEM cells (ATCC®, catalogue number CRL-2264) were cultured in RPMI (GIBCO, Grand island, N.Y., USA) with 10% FCS, 2 mM glutamine (HyClone, South Logan, Utah, USA) and 1% penicillin-streptomycin mix antibiotics (Cellgro, Manassan, Va., USA) supplements. Cells were maintained in the log phase at a concentration of between 1×10^5 and 1×10^6 cells/mL. CEM cells (1×10^6 cell/mL) were plated (1 mL) in twelve well plate and treated with the invention compounds (final concentration 1 and 5 μM), and incubated for two hours at 37° C., 5% CO2. The compounds tested were prepared by first making stock solutions (2.5 mM) in dimethylsulfoxide (DMSO). Cells were treated with 5 mM DEM for 30 minutes and collected by centrifugation at 300×g for 3 min and then washed twice with Hanks' Balanced Salt Solution (HSSB) buffer (Sigma, St. Louis, Mo. USA). Cells were resuspended in HSSB buffer+10 mM glucose and incubated at 37° C. in the dark for 20 min with 10 μM DCFH-DA. Cells were collected by centrifugation at 300×g for 3 min and then washed twice with HSSB buffer. The samples were analyzed immediately by flow cytometry (Becton-Dickinson FACS Caliber), (Cell Quest software, BD Biosciences) using 488 nm excitation laser and FL1-H channel 538 nm emission filter. In each analysis, 10,000 events were recorded after cell debris were electronically gated out. Results obtained were verified by repeating experiments N=3 independent experiments. Authentic hydrogen peroxide was used as a positive control.

cultured FRDA cells = assay: Cytoprotection of cultured FRDA cells depleted of glutathione; format: cell-based; conditions: pretreated then depleted of glutathione, read-out: Viable Cells (%)
Description: The cells were pretreated with the compounds and then depleted of glutathione. The cell viability is expressed as percentage of total number of cells.

SMILES	NADH oxidase activity (%) ([1]; 1 μM)	Total ATP concentration (% of control) ([2]; 5 μM)	Total ATP concentration (% of control) ([2]; 10 μM)	Total ATP concentration (% of control) ([2]; 25 μM)	NADH oxidase activity (%) ([1]; 2.5 μM)	NADH oxidase activity (%) ([1]; 10 μM)	further results
CCCCCCCCCCc1nc(N(C)C)nc(C)c1O [drawing 133]	40%	–	–	–	–	–	IC50 [1]: 829 nM
CCCCCCCCCCc1nc(N(C)C)nc(C)c1O [drawing 119]	–	106.6 ± 2.7 % of control	98.7 ± 1.1 % of control	75.3 ± 1.8 % of control	–	–	–
CCCCCCCCCCc1nc(N2C(C)CCC2C)nc(C)c1O (stereo not drawn)	40%	–	–	–	–	–	IC50 [1]: 10700 nM
Cc1nc2c(c(CC[C@](C)(O)CCC[C@H](C)CCC[C@H](C)CCCC(C)C)c1O)CCN2C [drawing 136]	50%	–	–	–	50%	15%	–
COc1c(O)c(C)c(CCCCCCCCCCO)c(O)c1OC [idebenol, reference compound]	–	–	–	–	–	–	protection against ROS production (DCF fluorescence) (CEM cells): less effective at this concentration
CCCCCCCCCCCCCCCCc1nc(N(C)C)nc(OC)c1O [drawing 140]	90%	–	–	–	70%	70%	NADH oxidase activity (%) ([1]; 5 μM): 70%
CCCCCCCCCCCCCCCCc1nc(N(C)C)nc(C)c1O [drawing 139]	62%	–	–	–	62%	62%	NADH oxidase activity (%) ([1]; 5 μM): 62%
COc1nc(N(C)C)nc(CCCCCCCCCCO)c1O [drawing 117]	–	101.6 ± 1.4 % of control	96.8 ± 4.0 % of control	48.7 ± 0.8 % of control	–	–	–
CCCCCc1nc(N(C)C)nc(C)c1O [drawing 118]	–	109.3 ± 2.3 % of control	111.1 ± 1.5 % of control	105.6 ± 2.4 % of control	–	–	–
Cc1nc(N(C)C)nc(CCCCCCCCCCO)c1O [drawing 134]	50%	–	–	–	42%	15%	NADH oxidase activity (%) ([1]; 5 μM): 22%; IC50 [1]: 2230 nM
Cc1nc(N(C)C)nc(CCCCCCCCCCO)c1O [drawing 123]	–	–	–	–	–	–	viability at 0.1 µM (cultured FRDA cells; 0.1 μM): 63.6 ± 8.4%; viability at 0.5 µM (cultured FRDA cells; 0.5 μM): 83.5 ± 0.7%; viability at 2.5 µM (cultured FRDA cells; 2.5 μM): 82.7 ± 8.1%
Cc1nc(N(C)C)nc(CCCCCCCCCCO)c1O [drawing 116]	–	102.4 ± 1.2 % of control	87.9 ± 4.3 % of control	46.1 ± 1.2 % of control	–	–	–
CCCCCCCCCCCCCCCCc1nc(N(C)C)nc(OC)c1O [drawing 122]	–	122.3 ± 1.9 % of control	116.4 ± 0.5 % of control	113.0 ± 1.6 % of control	–	–	–
